Test results as given in patent publication US6436310B1, “Deicing solution” (Sears Petroleum & Transport Corporation, priority 1998, dated 2002).
Like-named read-outs stand apart in the source and are kept apart here.

How the values were obtained:
[1] = aqueous solution
Rats = settings: cited from earlier work
[2] = calculated from data in SHRP H-205.2; cited from earlier work
[3] = SHRP H-205.2 Test Method for Ice Melting of Liquid Deicing Chemicals; settings: 25° F. (−4° C.)
Procedure: Fraction E was also examined for ice melting characteristics at 25° F.

[4] = Freezing point of simple carbohydrates with 15% magnesium chloride; assay type: physicochemical; settings: 15% MgCl2
Procedure: There is available commercially a wide range of carbohydrates with varying carbohydrate compositions. An evaluation was conducted using simple sugars, disaccharides and polysaccharides in an attempt to determine the effect of molecular weight and solute concentration upon freezing point.

| Structure (SMILES) | Oral LD 50 (Rats) (Rats) | Lbs weight ice melted per lb weight of inorganic salt [2] | also measured |
| --- | --- | --- | --- |
| CC(=O)[O-].[Na+] [Sodium acetate, sodium acetate] | 3550 mg/kg | – | solids content at the eutectic point [1]: 23% |
| [Ca+2].[Cl-].[Cl-] [Ca Cl2, calcium chloride] | – | 7.3 Lbs per lb | – |
| [Cl-].[Cl-].[Mg+2] [Mg Cl2, magnesium chloride] | – | – | Lbs weight ice melted per lb weight of inorganic salt [3]: 16.9 Lbs per lb |
| CC(=O)[O-].[K+] [Potassium acetate, potassium acetate] | 3250 mg/kg | – | – |
| [Cl-].[Na+] [Sodium Chloride, sodium chloride] | 3000 mg/kg | 7.5 Lbs per lb | – |
| OC[C@H]1O[C@@H](O[C@H]2[C@H](O)[C@@H](O)C(O)O[C@@H]2CO)[C@H](O)[C@@H](O)[C@H]1O (some centres unmarked) [Lactose] | – | – | comparison in reducing freezing point [4]: somewhat better than maltose |
